Test results from PMC3334918, “Mutagenesis and Functional Studies with Succinate Dehydrogenase Inhibitors in the Wheat Pathogen Mycosphaerella graminicola” (PLoS ONE, 2012).

Columns and labels:
[1] = test system: M. graminicola WT (IPO323); assay: microbe, parasite or virus in culture; type: cell-based, Mycosphaerella graminicola; details: Zymoseptoria tritici; WT (IPO323), liquid culture growth, ±S.E. (triplicate); read-out: IC50 in vivo
Experimental: (§1) To explore the sensitivity profiles conferred by amino acid substitutions at the cellular and mitochondrial level, we determined sensitivity towards 4 different compounds for 26 of the identified substitution types both in vivo using liquid culture growth (AE media) and in vitro using purified mitochondria and the succinate: Q0/DCPIP activity test (Table 3). […] Resistance factors (RF) were determined as the ratio IC50mutant/IC50WT. […] Qp site mutations are well known to influence SDH enzyme activity and stability upon catalysis, [13], [38], [41].
(§2) Conidial cells were collected from 4 day old V8 agar plates (cultured at 18°C in the dark) using liquid AE and a cell spreader. Cell density was determined and cells re-suspended to a concentration of 5×10^5 cells ml^−1 in AE media. Sterile 96 wells microtiter plates with lids (Costar) were inoculated with 198 µl of this cell suspension (10^5 cells per well) and 2 µl of inhibitor (100× in DMSO). Final inhibitor concentrations were between 0.95 nM and 1 mM with uniform 4× dilution factor steps (11 inhibitor concentrations+1 DMSO control). Plates were incubated for 6 days at 19°C in the dark before cells were re-suspended and measured for growth (OD600 nm). IC50 values were determined by non linear curve fitting on the basis of measured OD values versus log inhibitor concentrations (GraphPad Prism 5.0 software).

[2] = molecular target: succinate dehydrogenase (SDH), WT (IPO323) (Zymoseptoria tritici (Mycosphaerella graminicola), UniProt F9X9V6+F9XG45+F9XH52); assay: in vitro succinate: Q0/DCPIP activity test, purified mitochondria; type: biochemical; details: read-out: IC50 in vitro, ±S.E. (triplicate)
Experimental: as §1
Strains were grown in 1 liter TSM40 units. Cultures were inoculated at 0.05 OD600 nm and grown on a reciprocal shaker (110 rpm, 22°C) for 5 days. Cells were harvested by vacuum filtration and disrupted in liquid nitrogen using a mortar and pestle. Resultant powder was re-suspended to 10% w/v in mitochondrial extraction buffer (10 mM KHPO4 pH7.2; 10 mM KCl, 10 mM MgCl2, 0.5 M sucrose, 0.2 mM EDTA, 2 mM PMSF). Extract was clarified by centrifugation (5,000 g, 4°C for 10 minutes, 2 times), intact mitochondria were then pelleted at 10,000 g for 20 minutes at 4°C. […] This volume was transferred to conical 1.5 ml tubes and re-centrifuged, 10,000 g for 10 minutes at 4°C. […] Mitochondrial suspensions were brought to a final concentration of 10 mg ml^−1 in extraction buffer and stored at −80°C until used.
Mitochondrial suspensions were incubated at 30°C for 30 minutes in extraction buffer supplemented with 10 mM succinate prior to enzymatic measurements.
A reaction plate was equilibrated for 10 minutes at 30°C before starting the reaction. DCPIP reduction was conducted at 30°C and monitored at 595 nm using a HTS7000 microtiterplate reader (Perkin Elmer). For calculations a molecular extinction coefficient of ε = 17 mM^−1 cm^−1 was used.
Inhibitor concentrations ranged between 1 mM and 0.95 nM with uniform 4× dilution factor steps (11 inhibitor concentrations+DMSO control). 96 wells plates were pre equilibrated at reaction temperature (30°C) for 10 minutes before the reactions were started by the addition of 5 µl preactivated M. graminicola mitochondrial suspension. Calculated absorbance slopes (OD/hour) were used for IC50 calculations using Graphpad Prism 5.0 software non linear curve fitting against log inhibitor concentrations.

[3] = examination of supplemented AE agar plates for precipitate; type: physicochemical; details: AE agar plates supplemented with 150 µM (5×MSC), developed over time
[4] = test system: M. graminicola strain Cbx28 (SDHB_H267Y); assay: in vivo sensitivity, liquid culture growth (AE media); type: cell-based, Mycosphaerella graminicola; details: M. graminicola SDHB_H267Y; compound A: data not shown
Experimental: as §1, §2

[5] = test system: wild type IPO323 M. graminicola strain; type: cell-based, Mycosphaerella graminicola; details: minimal concentration to fully inhibit growth of WT IPO323, AE agar, 10^7 cells, 2 weeks at 20°C in the dark
From the text: (§3) Selection plates were produced after adding 1% of a 100× DMSO solution of the active ingredients to pre-melted AE-agar.

[6] = test system: M. graminicola isolate IPO323; assay: UV mutagenesis and selection of resistant colonies on carboxamide amended AE agar; type: cell-based, Mycosphaerella graminicola
Experimental: as §3
Cells were harvested from 4 days old V8 agar plates and conidial cells were suspended in liquid AE. 10^7 cells were spread onto carboxamide amended AE agar plates and mutagenized using UV Stratalinker 2400 (Stratagene) with 75 mJ cm^−2 or 50 mJ cm^−2. […] Selection plates were incubated in the dark at 20°C for 14 days. Visible colonies were picked from the primary selection plate and re-grown on fresh selection media for 2 additional weeks under the same conditions.

Chain of succinate dehydrogenase (SDH), WT (IPO323) (F9XG45 entry or part of it): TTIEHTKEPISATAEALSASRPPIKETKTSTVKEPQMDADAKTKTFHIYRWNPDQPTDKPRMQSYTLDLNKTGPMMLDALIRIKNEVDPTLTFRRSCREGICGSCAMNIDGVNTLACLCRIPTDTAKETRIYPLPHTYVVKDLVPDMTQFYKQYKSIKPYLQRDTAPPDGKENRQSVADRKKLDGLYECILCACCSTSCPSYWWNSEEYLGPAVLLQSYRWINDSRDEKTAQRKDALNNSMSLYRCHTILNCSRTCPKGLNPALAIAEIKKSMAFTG
Chain of succinate dehydrogenase (SDH), WT (IPO323) (F9X9V6 entry or part of it): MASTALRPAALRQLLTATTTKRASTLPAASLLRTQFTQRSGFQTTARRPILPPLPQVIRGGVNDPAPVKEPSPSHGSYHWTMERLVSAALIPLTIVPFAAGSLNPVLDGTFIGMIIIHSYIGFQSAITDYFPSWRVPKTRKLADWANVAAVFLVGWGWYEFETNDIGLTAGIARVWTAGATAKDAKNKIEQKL
Chain of succinate dehydrogenase (SDH), WT (IPO323) (F9XH52 entry or part of it): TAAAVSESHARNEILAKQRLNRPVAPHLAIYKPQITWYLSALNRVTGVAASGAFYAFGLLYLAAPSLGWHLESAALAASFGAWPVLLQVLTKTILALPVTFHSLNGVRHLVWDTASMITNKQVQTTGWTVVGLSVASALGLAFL

## O=C(Nc1ccccc1-c1ccc(Cl)cc1)c1cccnc1Cl [Boscalid]
[1]
  IC50: 455 ± 47 nM
[2]
  IC50: 60 ± 1.8 nM
[3]
  precipitation in the media: white precipitate

## CC1=C(C(=O)Nc2ccccc2)SCCO1 [Carboxin]
[1]
  IC50: 6470 ± 1080 nM
[2]
  IC50: 1160 ± 102 nM

## O=C(NCCc1ncc(C(F)(F)F)cc1Cl)c1ccccc1C(F)(F)F [Fluopyram]
[1]
  IC50: 584 ± 100 nM
[2]
  IC50: 44 ± 2.2 nM
[4]
  sensitivity / control of the SDHB_H267Y mutant compared to the WT: hypersensitivity

## CC(C)C1C2CCC1c1c(NC(=O)c3cn(C)cc3C(F)(F)F)cccc12 (centres unmarked) [compound A]
[4]
  sensitivity / control of the SDHB_H267Y mutant compared to the WT: better control
[5]
  Minimal selective concentration (MSC): compound A 100 µM (MSC)
[6]; selection at MSC, UV treatment 50 mJ cm^−2
  Frequency (of resistance development): 1.4E-07
[6]; selection at MSC, UV treatment 75 mJ cm^−2
  Frequency (of resistance development): 2.1E-07
[6]; selection at […] MSC, UV treatment 50 mJ cm^−2
  Frequency (of resistance development): 2.1E-07
[6]; selection at […] MSC, UV treatment 75 mJ cm^−2
  Frequency (of resistance development): 1.9E-07
